Experimental data reported in ChEMBL document CHEMBL1131914, “Carbohydroxamido-oxazolidines: antibacterial agents that target lipid A biosynthesis” (Bioorg Med Chem Lett, 1999).
In brackets after ≈: the same amount, converted by molar mass. Activity calls are given as the source filed them. The rule behind the calls is not given here.

How the values were obtained:
[1] = target: T1, UDP-3-O-acyl-N-acetylglucosamine deacetylase (Escherichia coli K-12, UniProt P0A725); assay: Inhibition of UDP-3-O-[R-3-hydroxymyristoyl]-GlcNAc deacetylase using coupled radiochemical assay (WAVE) in Escherichia coli strain JB 1104
T1 sequence (P0A725 whole entry): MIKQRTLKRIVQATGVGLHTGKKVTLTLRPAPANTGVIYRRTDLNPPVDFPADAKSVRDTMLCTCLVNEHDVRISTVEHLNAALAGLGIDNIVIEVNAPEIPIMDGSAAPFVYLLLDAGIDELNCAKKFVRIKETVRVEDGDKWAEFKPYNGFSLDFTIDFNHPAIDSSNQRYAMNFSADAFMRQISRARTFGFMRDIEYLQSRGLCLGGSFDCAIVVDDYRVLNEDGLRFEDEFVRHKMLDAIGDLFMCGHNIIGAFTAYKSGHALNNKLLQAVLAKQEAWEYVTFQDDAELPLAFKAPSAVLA

Escherichia coli [2] = assay: Antibacterial activity of against Escherichia coli mutant (envA1) was determined.; type: functional, organism-based
Escherichia coli [3] = assay: Antibacterial activity against Escherichia coli mutant (envA1) was determined; type: functional
Escherichia coli [4] = assay: Antibacterial activity against Escherichia coli was determined; type: functional
[5] = target: T1, UDP-3-O-acyl-N-acetylglucosamine deacetylase; assay: Inhibition of UDP-3-O-[R-3-hydroxymyristoyl]-GlcNAc deacetylase using direct deacetylase assay (DEACET) in Escherichia coli strain JB 1104
Serratia = assay: Antibacterial activity against Serratia was determined; NA=not active; type: functional, organism-based
Escherichia coli [6] = assay: Antibacterial activity against Escherichia coli mutant (envA1) was determined; Ranges from 0.008-0.016; type: functional
Pseudomonas = assay: Antibacterial activity against Pseudomonas was determined; NA=not active; type: functional, organism-based
Escherichia coli [7] = assay: Antibacterial activity against Escherichia coli was determined; Ranges from 1-3; type: functional
Escherichia coli [8] = assay: Antibacterial activity against Escherichia coli was determined; Ranges from 200-400; type: functional
Escherichia coli [9] = assay: Antibacterial activity against Escherichia coli was determined; Ranges from 25-50; type: functional
Escherichia coli [10] = assay: Antibacterial activity against Escherichia coli was determined; Ranges from […]; type: functional

SMILES	IC50 ([1]; read-out: IC50)	MIC (Escherichia coli [2])	MIC (Escherichia coli [3])	IC50 [5]	also measured
Cc1cccc(C2=NC(C(=O)NO)CO2)c1 (configuration not stated)	1100 nM	inactive	–	–	–
CCCc1cc(C2=NC(C(=O)NO)CO2)cc(OC)c1O (configuration not stated)	–	–	0.39 µg/mL (≈ 1.33 µM)	1400 nM	MIC (Escherichia coli [4]): > 100 µg/mL
Cc1ccc(C2=NC(C(=O)NO)CO2)cc1 (configuration not stated)	1700 nM	inactive	–	–	–
CCCc1cc(C2=N[C@@H](C(=O)NO)CO2)cc(OC)c1OC	–	–	–	30 nM	MIC (Serratia): inactive; MIC (Escherichia coli [6]): 0.008 µg/mL (≈ 0.0259 µM); MIC (Pseudomonas): inactive; MIC (Escherichia coli [7]): 1 µg/mL (≈ 3.24 µM)
CCCc1cc(C2=NC(C(=O)NO)CO2)cc(OCc2ccccc2)c1OC (configuration not stated)	–	–	< 0.008 µg/mL	20 nM	MIC (Escherichia coli [4]): 25 µg/mL (≈ 65 µM)
COC(=O)C1COC(c2ccccc2)=N1 (configuration not stated)	> 400000 nM	–	–	–	–
Cc1ccccc1C1=NC(C(=O)NO)CO1 (configuration not stated)	2600 nM	inactive	–	–	–
O=C(O)C1COC(c2ccccc2)=N1 (configuration not stated)	> 400000 nM	–	–	–	–
O=C(NO)C1COC(c2ccccc2)=N1 (configuration not stated)	3000 nM	–	3.6 µg/mL (≈ 17.5 µM)	8500 nM	MIC (Escherichia coli [8]): 200 µg/mL (≈ 970 µM)
CN(OCc1ccccc1)C(=O)[C@H]1COC(c2ccccc2)=N1	> 400000 nM	–	–	–	–
COc1ccc(C2=N[C@@H](C(=O)NO)CO2)cc1	300 nM	–	0.25 µg/mL (≈ 1.06 µM)	1400 nM	MIC (Escherichia coli [9]): 25 µg/mL (≈ 106 µM)
O=C(NO)[C@@H]1COC(c2ccccc2)=N1	360000 nM	–	–	–	–
O=C(NO)C1COC(c2cccnc2)=N1 (configuration not stated)	–	inactive	–	100000 nM	–
O=C(NO)C1COC(c2ccccc2Cl)=N1 (configuration not stated)	–	–	–	30000 nM	–
O=C(NO)C1COC(c2c(Cl)cccc2Cl)=N1 (configuration not stated)	–	inactive	–	> 200000 nM	IC50 [1]: Not Active
COc1cc(C2=N[C@@H](C(=O)NO)CO2)cc(OC)c1OC	–	inactive	–	300 nM	–
O=C(NO)[C@H]1COC(c2ccco2)=N1	9000 nM	inactive	–	–	–
CCCc1cc(C2=NC(C(=O)NO)CO2)ccc1OC (configuration not stated)	–	–	0.1 µg/mL (≈ 0.359 µM)	300 nM	MIC (Escherichia coli [4]): 12.5 µg/mL (≈ 44.9 µM)
CCCc1cc(C2=NC(C(=O)NO)CO2)cc(O)c1OC (configuration not stated)	–	–	0.06 µg/mL (≈ 0.204 µM)	100 nM	MIC (Escherichia coli [4]): 12.5 µg/mL (≈ 42.5 µM)
CCCc1ccc(C2=N[C@@H](C(=O)NO)CO2)cc1	100 nM	inactive	–	–	–
O=C(NO)C1COC(c2ccncc2)=N1 (configuration not stated)	–	inactive	–	100000 nM	–
CN(O)C(=O)[C@H]1COC(c2ccccc2)=N1	> 400000 nM	–	–	–	–
O=C(NO)[C@H]1COC(c2ccccc2)=N1	1500 nM	–	–	6000 nM	–
CCCc1cccc(C2=N[C@@H](C(=O)NO)CO2)c1	50 nM	–	0.06 µg/mL (≈ 0.242 µM)	1600 nM	MIC (Escherichia coli [4]): 12.5 µg/mL (≈ 50.3 µM)
CCCc1cc(C2=NC(C(=O)NO)CO2)cc(OC)c1OC (configuration not stated)	–	–	< 0.05 µg/mL	50 nM	MIC (Escherichia coli [10]): 3 µg/mL (≈ 9.73 µM)
CCc1ccc(C2=N[C@@H](C(=O)NO)CO2)cc1	200 nM	inactive	–	600 nM	–
